Results as given in PubChem BioAssay AID330 (DTP/NCI, 2004).
Inconclusive results and toxic doses are left out. Square brackets hold non-standard residues; d marks the D form. Peptide text beside a SMILES is read from it. * marks the point of attachment. ξ: configuration not given here. Cbz = O=C(OCc1ccccc1)*; ξI = CCC(C)C(N)C(=O)O

System: P388 leukemia ip, CD2F1 mice, survival T/C
Assay: NCI In Vivo Anticancer Drug Screen. Data for tumor model P388 Leukemia (intraperitoneal) in CD2F1 (CDF1) mice
Conditions: endpoint: median survival time, higher = longer survival
In short: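 Mice carrying the transplanted tumor received test compound or vehicle. Survival was recorded in each group, and the value is the treated-group measurement divided by that of the vehicle-treated control group.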

[1] = dose: 60.0 mg/kg/injection, schedule: Q01DX005 (ip), vehicle: saline with Tween-80
[2] = dose: 120.0 mg/kg/injection, schedule: Q01DX005 (ip), vehicle: saline with Tween-80
[3] = dose: 240.0 mg/kg/injection, schedule: Q01DX005 (ip), vehicle: saline with Tween-80
[4] = dose: 100.0 mg/kg/injection, schedule: Q01DX001 (ip), vehicle: saline
[5] = dose: 200.0 mg/kg/injection, schedule: Q01DX001 (ip), vehicle: saline
[6] = dose: 400.0 mg/kg/injection, schedule: Q01DX001 (ip), vehicle: saline
[7] = dose: 50.0 mg/kg/injection, schedule: Q01DX009 (ip), vehicle: Klucel (hydroxypropylcellulose) (HPC)
[8] = dose: 100.0 mg/kg/injection, schedule: Q01DX009 (ip), vehicle: Klucel (hydroxypropylcellulose) (HPC)
[9] = dose: 200.0 mg/kg/injection, schedule: Q01DX009 (ip), vehicle: Klucel (hydroxypropylcellulose) (HPC)
[10] = dose: 50.0 mg/kg/injection, schedule: Q01DX009 (ip), vehicle: saline with Tween-80
[11] = dose: 100.0 mg/kg/injection, schedule: Q01DX009 (ip), vehicle: saline with Tween-80
[12] = dose: 50.0 mg/kg/injection, schedule: Q01DX009 (ip), vehicle: saline
[13] = dose: 100.0 mg/kg/injection, schedule: Q01DX009 (ip), vehicle: saline
[14] = dose: 60.0 mg/kg/injection, schedule: Q01DX005 (ip), vehicle: Klucel (hydroxypropylcellulose) (HPC)
[15] = dose: 120.0 mg/kg/injection, schedule: Q01DX005 (ip), vehicle: Klucel (hydroxypropylcellulose) (HPC)
[16] = dose: 240.0 mg/kg/injection, schedule: Q01DX005 (ip), vehicle: Klucel (hydroxypropylcellulose) (HPC)
[17] = dose: 50.0 mg/kg/injection, schedule: Q01DX005 (ip), vehicle: Klucel (hydroxypropylcellulose) (HPC)
[18] = dose: 100.0 mg/kg/injection, schedule: Q01DX005 (ip), vehicle: Klucel (hydroxypropylcellulose) (HPC)
[19] = dose: 200.0 mg/kg/injection, schedule: Q01DX005 (ip), vehicle: Klucel (hydroxypropylcellulose) (HPC)
[20] = dose: 100.0 mg/kg/injection, schedule: Q04DX003 (ip), vehicle: saline with Tween-80
[21] = dose: 200.0 mg/kg/injection, schedule: Q04DX003 (ip), vehicle: saline with Tween-80
[22] = dose: 400.0 mg/kg/injection, schedule: Q04DX003 (ip), vehicle: saline with Tween-80
[23] = dose: 50.0 mg/kg/injection, schedule: Q01DX005 (ip), vehicle: saline with Tween-80
[24] = dose: 100.0 mg/kg/injection, schedule: Q01DX005 (ip), vehicle: saline with Tween-80
[25] = dose: 200.0 mg/kg/injection, schedule: Q01DX005 (ip), vehicle: saline with Tween-80
[26] = dose: 12.5 mg/kg/injection, schedule: Q01DX009 (ip), vehicle: saline with Tween-80

SMILES: Cc1ccc(C(C(=O)O)(c2ccc(C)c(C)c2)C(O)C(=O)O)cc1C (stereo not given)
- T/C (dose: 100.0 mg/kg/injection, schedule: Q01DX001 (ip), vehicle: Klucel (hydroxypropylcellulose) (HPC)): 106 % of control
- T/C (dose: 200.0 mg/kg/injection, schedule: Q01DX001 (ip), vehicle: Klucel (hydroxypropylcellulose) (HPC)): 106 % of control
- T/C (dose: 400.0 mg/kg/injection, schedule: Q01DX001 (ip), vehicle: Klucel (hydroxypropylcellulose) (HPC)): 104 % of control

SMILES: N#CC1=C(Nc2ccccc2Cl)SC(c2ccccc2O)NC1=O (stereo not given)
- T/C [1]: 103 % of control
- T/C [2]: 102 % of control
- T/C [3]: 96 % of control

SMILES: COc1ccc(-c2cnc3[nH]c(=O)[nH]c(=O)c3n2)cc1
- T/C [4]: 100 % of control
- T/C [5]: 97 % of control
- T/C [6]: 90 % of control

SMILES: OC(C(=S)N1CCOCC1)(c1ccccc1)c1ccccc1
- T/C [7]: 105 % of control
- T/C [8]: 103 % of control
- T/C [9]: 98 % of control

SMILES: C[Si](C)(Cn1ccc(=O)n(C[Si](C)(C)c2ccccc2)c1=O)c1ccccc1
- T/C (dose: 81.0 mg/kg/injection, schedule: Q04DX002 (ip), vehicle: saline with Tween-80): 100 % of control
- T/C (dose: 162.0 mg/kg/injection, schedule: Q04DX002 (ip), vehicle: saline with Tween-80): 104 % of control
- T/C (dose: 324.0 mg/kg/injection, schedule: Q04DX002 (ip), vehicle: saline with Tween-80): 106 % of control

SMILES: O=C(C[N+](=O)[O-])c1ccc(Cl)cc1
- T/C [10]: 87 % of control
- T/C [11]: 91 % of control

SMILES: C1CN(CCSSCCN2CCOCC2)CCO1
- T/C [12]: 104 % of control
- T/C [13]: 113 % of control
- T/C (dose: 200.0 mg/kg/injection, schedule: Q01DX009 (ip), vehicle: saline): 109 % of control

SMILES: COc1ccc(C2OC3=C(Nc4ccccc4N3)C2=O)cc1 (stereo not given)
- T/C [14]: 97 % of control
- T/C [15]: 97 % of control
- T/C [16]: 98 % of control

SMILES: OC1(c2nccc3ccccc23)CCN(CCc2ccccc2)CC1
- T/C (dose: 12.5 mg/kg/injection, schedule: Q01DX009 (ip), vehicle: saline): 102 % of control
- T/C (dose: 25.0 mg/kg/injection, schedule: Q01DX009 (ip), vehicle: saline): 97 % of control
- T/C [10]: 87 % of control
- T/C [12]: 108 % of control

SMILES: CCC(C)C(NC(=O)OCc1ccccc1)C(=O)NCC(=O)O (stereo not given) (Cbz-[ξI]-Gly-OH)
- T/C [17]: 97 % of control
- T/C [18]: 97 % of control
- T/C [19]: 90 % of control

SMILES: O=C(CCS(=O)(=O)CCC(=O)c1cccs1)c1cccs1
- T/C (dose: 100.0 mg/kg/injection, schedule: Q04DX003 (ip), vehicle: saline): 90 % of control
- T/C (dose: 200.0 mg/kg/injection, schedule: Q04DX003 (ip), vehicle: saline): 90 % of control
- T/C (dose: 400.0 mg/kg/injection, schedule: Q04DX003 (ip), vehicle: saline): 90 % of control

SMILES: O=C1OC2=C(CCCC2)C(N2CCCCC2)C12SCCCS2 (stereo not given)
- T/C [20]: 109 % of control
- T/C [21]: 103 % of control
- T/C [22]: 101 % of control

SMILES: O=S1(=O)CCC(N(/N=C/c2ccco2)c2ccccc2)C1 (stereo not given)
- T/C [23]: 95 % of control
- T/C [24]: 101 % of control
- T/C [25]: 101 % of control

SMILES: O=c1c(Br)cc(CN2CCOCC2)cc(CN2CCOCC2)c1O
- T/C [10]: 112 % of control
- T/C [11]: 116 % of control

SMILES: Cc1cc(=O)oc2cc3occc(=O)c3cc12
- T/C [1]: 98 % of control
- T/C [2]: 95 % of control
- T/C [3]: 92 % of control

SMILES: OC1C(O)C(O)C(O)C(O)C1O.[Cu+2].[Cu] (stereo not given)
- T/C (dose: 3.12 mg/kg/injection, schedule: Q01DX005 (ip), vehicle: Klucel (hydroxypropylcellulose) (HPC)): 93 % of control
- T/C (dose: 6.25 mg/kg/injection, schedule: Q01DX005 (ip), vehicle: Klucel (hydroxypropylcellulose) (HPC)): 93 % of control
- T/C (dose: 12.5 mg/kg/injection, schedule: Q01DX005 (ip), vehicle: Klucel (hydroxypropylcellulose) (HPC)): 94 % of control
- T/C (dose: 25.0 mg/kg/injection, schedule: Q01DX005 (ip), vehicle: Klucel (hydroxypropylcellulose) (HPC)): 100 % of control

SMILES: NC(CCC(=O)O)C(=O)Nc1ccc(N(CCCl)CCCl)cc1 (stereo not given)
- T/C (dose: 1.56 mg/kg/injection, schedule: Q01DX009 (ip), vehicle: saline with Tween-80): 173 % of control
- T/C (dose: 3.12 mg/kg/injection, schedule: Q01DX009 (ip), vehicle: saline with Tween-80): 175 % of control
- T/C (dose: 6.25 mg/kg/injection, schedule: Q01DX009 (ip), vehicle: saline with Tween-80): 230 % of control
- T/C [26]: 92 % of control

SMILES: Cc1cc([N+](=O)[O-])c([N+](=O)[O-])cc1Cl
- T/C (dose: 50.0 mg/kg/injection, schedule: Q01DX001 (ip), vehicle: other): 100 % of control
- T/C (dose: 100.0 mg/kg/injection, schedule: Q01DX001 (ip), vehicle: other): 100 % of control
- T/C (dose: 200.0 mg/kg/injection, schedule: Q01DX001 (ip), vehicle: other): 105 % of control

SMILES: CC[C@@]12C[C@]1(C(=O)OC)C(=O)N1CCc3c([nH]c4ccccc34)[C@H]12
- T/C [17]: 90 % of control
- T/C [18]: 96 % of control
- T/C [19]: 91 % of control

SMILES: O=C(Cn1nnc(N2CCOCC2)n1)N/N=C/c1ccccc1Cl
- T/C [14]: 91 % of control
- T/C [15]: 87 % of control
- T/C [16]: 87 % of control

SMILES: CCOC(=O)C(=CNc1cc(OC)cc2cccnc12)C(=O)OCC
- T/C [17]: 96 % of control
- T/C [18]: 88 % of control
- T/C [19]: 88 % of control

SMILES: C=CCC(C(C)=O)C(=O)OC (stereo not given)
- T/C (dose: 50.0 mg/kg/injection, schedule: Q01DX005 (ip), vehicle: saline): 90 % of control
- T/C (dose: 100.0 mg/kg/injection, schedule: Q01DX005 (ip), vehicle: saline): 104 % of control
- T/C (dose: 200.0 mg/kg/injection, schedule: Q01DX005 (ip), vehicle: saline): 100 % of control

SMILES: CNCCCC12CC(c3ccccc31)c1ccccc12
- T/C [10]: 94 % of control

SMILES: Cc1cccc(N2CCN(S(C)(=O)=O)CC2)c1
- T/C [20]: 101 % of control
- T/C [21]: 102 % of control
- T/C [22]: 110 % of control

SMILES: O=C(Cc1ccc(Cl)cc1)NCCc1ccccc1
- T/C [23]: 102 % of control
- T/C [24]: 102 % of control
- T/C [25]: 99 % of control

SMILES: CSc1ccc(NC(=O)ON2CCCCC2)cc1
- T/C [10]: 99 % of control
- T/C [11]: 108 % of control
- T/C (dose: 200.0 mg/kg/injection, schedule: Q01DX009 (ip), vehicle: saline with Tween-80): 101 % of control

SMILES: c1ccc(C2=C(c3ccccc3)c3ccccc3CO2)cc1
- T/C [4]: 105 % of control
- T/C [5]: 100 % of control
- T/C [6]: 100 % of control

SMILES: O=C(Nc1cc(S(=O)(=O)O)cc2cc(S(=O)(=O)O)c(N=Nc3cc(Nc4nc(Cl)nc(Nc5ccc(S(=O)(=O)O)cc5)n4)ccc3S(=O)(=O)O)c(O)c12)c1ccccc1
- T/C (dose: 60.0 mg/kg/injection, schedule: Q01DX005 (ip), vehicle: saline): 106 % of control
- T/C (dose: 120.0 mg/kg/injection, schedule: Q01DX005 (ip), vehicle: saline): 102 % of control

SMILES: C[N+](C)(N)Cc1nc(-c2ccc(Cl)cc2)no1
- T/C [12]: 98 % of control
- T/C [13]: 93 % of control

SMILES: COc1ccc(CNC(=O)C2C(=O)C(=O)N(Cc3ccc(OC)c(OC)c3)C2=O)cc1OC (stereo not given)
- T/C [7]: 105 % of control
- T/C [8]: 96 % of control
- T/C [9]: 103 % of control

SMILES: O=[N+]([O-])c1cccc2c[n+](Cc3ccccc3)ccc12
- T/C [26]: 113 % of control
- T/C (dose: 25.0 mg/kg/injection, schedule: Q01DX009 (ip), vehicle: saline with Tween-80): 118 % of control
- T/C [10]: 107 % of control
